Test system: 292921-168-R-J2-PDC complex spheroid viability
Assay: Anticancer human tumor 292921-168-R-J2-PDC patient-derived pancreatic carcinoma cell line growth inhibition
Settings: for IC50: curve of first compound; for viability, T/C: stronger effect = lower value
Text: Multicellular complex tumor spheroid response to LSD1 Inhibitor Iadademstat in combination with a variety of drugs and investigational agents in selected tumor cell lines
The current study was undertaken to assess response to LSD1 inhibitors in combination with standard-of-care drugs and investigational agents in solid tumor complex spheroid models as well as in the K-562 leukemia. Complex spheroids include a stromal component modeled by human endothelial cells (HUVEC) and fibroblasts modeled by human mesenchymal stem cells (MSCs). The concentration ranges selected for each drug and investigational agent were based upon clinically achievable concentrations if the clinical Cmax of the agent was known.
Compounds. The drugs and investigational agents used in this study are listed on Table 1. All of the agents used, including staurosporine (NSC755774) and gemcitabine (NSC613327), were obtained from the Developmental Therapeutics Program, NCI. FDA-approved anticancer drugs are available from the NCI at http://dtp.nci.nih.gov/branches/dscb/oncology_drugset_explanation.html. Drugs and investigational agents were >95% pure by proton nuclear magnetic resonance (NMR) and liquid chromatography/mass spectrometry (LC/MS). Stock solutions were prepared at 400x in DMSO, stored at -70 degrees C, and diluted in fresh medium prior to their use. The final concentration of DMSO in cell culture wells never exceeded 0.25% (v/v). The FDA-approved anticancer drug set is available from the Developmental Therapeutics Program at https://dtp.cancer.gov/organization/dscb/obtaining/available_plates.htm. All drugs and investigational agents were tested over a range starting from a high concentration at or near the clinical Cmax and decreasing in half-log increments. If the clinical Cmax for an agent had not been determined, the highest concentration tested was 10 microM.
Cell Lines. The patient-derived cancer cell (PDC) lines: 292921-168-R-J2-PDC, K24384-001-R-PDC, and 521955-158-R2-J5-PDC pancreatic carcinomas, 556581-035-R-J1 ovarian carcinoma, 324938-238-R-J1-PDC, 855422-203-R-J1-PDC and 883617-216-R-J1-PDC urothelial bladder carcinomas, 743489-274-T-PDC renal cell carcinoma, 138582-R-J1 Merkel cell tumor, K60290-347-R-J1 and K57222-313-R-J1-PDC glioblastomas, 653999-131-R-J2-PDC, LG0703-F948-PDC, and 349418-098-R-PDC non-small cell lung carcinomas, 885512-296-R-J2-PDC, 171881-019-R-J1-PDC breast carcinomas and 186277-243-T-J2-PDC and 233499-124-R-J2-PDC colon carcinomas were obtained from the NCI Patient-Derived Models Repository (PDMR, https://pdmr.cancer.gov). The established cell lines NCI/ADR-RES (RRID:CVCL_14520 and OVCAR-5 (RRID:CVCL_1628) ovarian carcinomas, 786-O (RRID:CVCL_1051) and A498 (RRID:CVCL_A498) renal cell carcinoma, NCI-H211 (ATCC, cat. CRL-5824; RRID:CVCL_1529), NCI-H196 (ATCC, cat. CRL-5823, RRID:CVCL_1509), SW 1271 (ATCC, cat. CRL-2177, RRID:CVCL_1716) and NCI-H1876 (ATCC, cat. CRL-5902, RRID:CVCL_1503) small cell lung carcinomas, MDA-MB-231 (RRID:CVCL_0062) and MDA-MB-468 (RRID:CVCL_0419)breast carcinomas (10-12). Pooled donor human umbilical vein endothelial cells (HUVEC, Lonza, cat. CC-2519) and human mesenchymal stem cells (hMSC, Lonza, cat. PT-2501) were purchased from Lonza (Walkersville, MD).
Cell Culture. All cells were maintained in an incubator at 37 degrees C and 5% CO2 with 95% humidity. The PDC lines were cultured according to standard operating procedures established by the NCI PDMR (https://pdmr.cancer.gov). Briefly all PDCs were thawed and cultured in Matrigel-coated flasks prepared with a working solution of 1X Ham's F-12 nutrient mix, without supplementation (Invitrogen, Waltham, MA, cat. 11765054), 100 U/mL penicillin-streptomycin (Invitrogen, cat. 15140122), and 2.5% Matrigel (Corning Inc., Corning, NY, cat. 354248) for the first three passages. […]

[1] = second compound 0.1 µM, first compound 0.00316 µM
[2] = second compound 0.1 µM, first compound 0.01 µM
[3] = second compound 0.1 µM, first compound 0.0316 µM
[4] = second compound 0.1 µM, first compound 0.1 µM
[5] = second compound 0.316 µM, first compound 0.00316 µM
[6] = second compound 0.316 µM, first compound 0.01 µM
[7] = second compound 0.316 µM, first compound 0.0316 µM
[8] = second compound 0.316 µM, first compound 0.1 µM
[9] = second compound 1 µM, first compound 0.00316 µM
[10] = second compound 1 µM, first compound 0.01 µM
[11] = second compound 1 µM, first compound 0.0316 µM
[12] = second compound 1 µM, first compound 0.1 µM
[13] = second compound 3.16 µM, first compound 0.00316 µM
[14] = second compound 3.16 µM, first compound 0.01 µM
[15] = second compound 3.16 µM, first compound 0.0316 µM
[16] = second compound 3.16 µM, first compound 0.1 µM
[17] = second compound 10 µM, first compound 0.00316 µM
[18] = second compound 10 µM, first compound 0.01 µM
[19] = second compound 10 µM, first compound 0.0316 µM
[20] = second compound 10 µM, first compound 0.1 µM
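Further: seven day compound exposure before luminescent viability read.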
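Wherever viability, T/C is given: 100% = DMSO vehicle control wells.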

CC[C@@]1(O)C(=O)OCc2c1cc1n(c2=O)Cc2cc3c(CN(C)C)c(O)ccc3nc2-1 + NC1CC1c1ccc(-c2cccc(O)c2)cc1
IC50 (second compound 0.1 µM): 3.22 nM | IC50 (second compound 0.316 µM): 2.16 nM | IC50 (second compound 1 µM): 1.63 nM | IC50 (second compound 3.16 µM): 2.15 nM | IC50 (second compound 10 µM): 0.375 nM | viability, T/C (second compound 0.1 µM, first compound 0.000316 µM): 81.3% | viability, T/C (second compound 0.1 µM, first compound 0.001 µM): 78.9% | viability, T/C [1]: 48.2% | viability, T/C [2]: 21.6% | viability, T/C [3]: 8.58% | viability, T/C [4]: 3.36% | viability, T/C (second compound 0.316 µM, first compound 0.000316 µM): 72.8% | viability, T/C (second compound 0.316 µM, first compound 0.001 µM): 65.3% | viability, T/C [5]: 41.9% | viability, T/C [6]: 21% | viability, T/C [7]: 8.47% | viability, T/C [8]: 3.37% | viability, T/C (second compound 1 µM, first compound 0.000316 µM): 61.8% | viability, T/C (second compound 1 µM, first compound 0.001 µM): 56.7% | viability, T/C [9]: 41.1% | viability, T/C [10]: 21.3% | viability, T/C [11]: 8.54% | viability, T/C [12]: 4.7% | viability, T/C (second compound 3.16 µM, first compound 0.000316 µM): 66.4% | viability, T/C (second compound 3.16 µM, first compound 0.001 µM): 61.9% | viability, T/C [13]: 44.2% | viability, T/C [14]: 17.8% | viability, T/C [15]: 8.75% | viability, T/C [16]: 3.88% | viability, T/C (second compound 10 µM, first compound 0.000316 µM): 50.7% | viability, T/C (second compound 10 µM, first compound 0.001 µM): 46.7% | viability, T/C [17]: 37.4% | viability, T/C [18]: 20.5% | viability, T/C [19]: 9.34% | viability, T/C [20]: 4.4%

COc1cc(C2c3cc4c(cc3C(OC3OC5COC(C)OC5C(O)C3O)C3COC(=O)C23)OCO4)cc(OC)c1O (stereo not given) + NC1CC1c1ccc(-c2cccc(O)c2)cc1
IC50 (second compound 0.1 µM): 42.7 nM | IC50 (second compound 0.316 µM): 21.3 nM | IC50 (second compound 1 µM): 21.4 nM | IC50 (second compound 3.16 µM): 13.7 nM | IC50 (second compound 10 µM): < 9.49 nM | viability, T/C (second compound 0.1 µM, first compound 0.00949 µM): 84.3% | viability, T/C (second compound 0.1 µM, first compound 0.03 µM): 58.9% | viability, T/C (second compound 0.1 µM, first compound 0.0949 µM): 30.1% | viability, T/C (second compound 0.1 µM, first compound 0.3 µM): 19.4% | viability, T/C (second compound 0.1 µM, first compound 0.949 µM): 7.22% | viability, T/C (second compound 0.1 µM, first compound 3 µM): 4.45% | viability, T/C (second compound 0.316 µM, first compound 0.00949 µM): 64.8% | viability, T/C (second compound 0.316 µM, first compound 0.03 µM): 44.4% | viability, T/C (second compound 0.316 µM, first compound 0.0949 µM): 25.7% | viability, T/C (second compound 0.316 µM, first compound 0.3 µM): 18.6% | viability, T/C (second compound 0.316 µM, first compound 0.949 µM): 8.04% | viability, T/C (second compound 0.316 µM, first compound 3 µM): 5.02% | viability, T/C (second compound 1 µM, first compound 0.00949 µM): 64.7% | viability, T/C (second compound 1 µM, first compound 0.03 µM): 43.3% | viability, T/C (second compound 1 µM, first compound 0.0949 µM): 27.4% | viability, T/C (second compound 1 µM, first compound 0.3 µM): 16.4% | viability, T/C (second compound 1 µM, first compound 0.949 µM): 5.52% | viability, T/C (second compound 1 µM, first compound 3 µM): 4.94% | viability, T/C (second compound 3.16 µM, first compound 0.00949 µM): 54.8% | viability, T/C (second compound 3.16 µM, first compound 0.03 µM): 39.9% | viability, T/C (second compound 3.16 µM, first compound 0.0949 µM): 24.3% | viability, T/C (second compound 3.16 µM, first compound 0.3 µM): 15.2% | viability, T/C (second compound 3.16 µM, first compound 0.949 µM): 7.27% | viability, T/C (second compound 3.16 µM, first compound 3 µM): 3.74% | viability, T/C (second compound 10 µM, first compound 0.00949 µM): 44.7% | viability, T/C (second compound 10 µM, first compound 0.03 µM): 27.4% | viability, T/C (second compound 10 µM, first compound 0.0949 µM): 23% | viability, T/C (second compound 10 µM, first compound 0.3 µM): 17.1% | viability, T/C (second compound 10 µM, first compound 0.949 µM): 6.98% | viability, T/C (second compound 10 µM, first compound 3 µM): 5.53%

Nc1ncn(C2CC(O)C(CO)O2)c(=O)n1 (stereo not given) + NC1CC1c1ccc(-c2cccc(O)c2)cc1
IC50 (second compound 0.1 µM): 646 nM | IC50 (second compound 0.316 µM): 330 nM | IC50 (second compound 1 µM): 104 nM | IC50 (second compound 3.16 µM): 171 nM | IC50 (second compound 10 µM): 90.8 nM | viability, T/C [1]: 79.1% | viability, T/C [2]: 76.2% | viability, T/C [3]: 71.9% | viability, T/C [4]: 66.9% | viability, T/C (second compound 0.1 µM, first compound 0.316 µM): 55% | viability, T/C (second compound 0.1 µM, first compound 1 µM): 46.5% | viability, T/C [5]: 74.7% | viability, T/C [6]: 75% | viability, T/C [7]: 65.2% | viability, T/C [8]: 60.4% | viability, T/C (second compound 0.316 µM, first compound 0.316 µM): 49.6% | viability, T/C (second compound 0.316 µM, first compound 1 µM): 44.4% | viability, T/C [9]: 64.8% | viability, T/C [10]: 52.3% | viability, T/C [11]: 53.4% | viability, T/C [12]: 53.2% | viability, T/C (second compound 1 µM, first compound 0.316 µM): 48% | viability, T/C (second compound 1 µM, first compound 1 µM): 39.1% | viability, T/C [13]: 65.2% | viability, T/C [14]: 63.5% | viability, T/C [15]: 61.4% | viability, T/C [16]: 54% | viability, T/C (second compound 3.16 µM, first compound 0.316 µM): 45.2% | viability, T/C (second compound 3.16 µM, first compound 1 µM): 38.4% | viability, T/C [17]: 55% | viability, T/C [18]: 56.3% | viability, T/C [19]: 55.3% | viability, T/C [20]: 47.2% | viability, T/C (second compound 10 µM, first compound 0.316 µM): 45.4% | viability, T/C (second compound 10 µM, first compound 1 µM): 39.8%
